Measured values taken from patent US20210317134A1, “UBIQUITIN-SPECIFIC-PROCESSING PROTEASE 7 (USP7) MODULATORS AND USES THEREOF” (RAPT THERAPEUTICS, INC., priority 2019, published 2021).

target: USP7 (Homo sapiens, UniProt Q93009); assay: USP7 inhibitory potency (Table 1); format: biochemical
Sequence (Q93009 whole entry): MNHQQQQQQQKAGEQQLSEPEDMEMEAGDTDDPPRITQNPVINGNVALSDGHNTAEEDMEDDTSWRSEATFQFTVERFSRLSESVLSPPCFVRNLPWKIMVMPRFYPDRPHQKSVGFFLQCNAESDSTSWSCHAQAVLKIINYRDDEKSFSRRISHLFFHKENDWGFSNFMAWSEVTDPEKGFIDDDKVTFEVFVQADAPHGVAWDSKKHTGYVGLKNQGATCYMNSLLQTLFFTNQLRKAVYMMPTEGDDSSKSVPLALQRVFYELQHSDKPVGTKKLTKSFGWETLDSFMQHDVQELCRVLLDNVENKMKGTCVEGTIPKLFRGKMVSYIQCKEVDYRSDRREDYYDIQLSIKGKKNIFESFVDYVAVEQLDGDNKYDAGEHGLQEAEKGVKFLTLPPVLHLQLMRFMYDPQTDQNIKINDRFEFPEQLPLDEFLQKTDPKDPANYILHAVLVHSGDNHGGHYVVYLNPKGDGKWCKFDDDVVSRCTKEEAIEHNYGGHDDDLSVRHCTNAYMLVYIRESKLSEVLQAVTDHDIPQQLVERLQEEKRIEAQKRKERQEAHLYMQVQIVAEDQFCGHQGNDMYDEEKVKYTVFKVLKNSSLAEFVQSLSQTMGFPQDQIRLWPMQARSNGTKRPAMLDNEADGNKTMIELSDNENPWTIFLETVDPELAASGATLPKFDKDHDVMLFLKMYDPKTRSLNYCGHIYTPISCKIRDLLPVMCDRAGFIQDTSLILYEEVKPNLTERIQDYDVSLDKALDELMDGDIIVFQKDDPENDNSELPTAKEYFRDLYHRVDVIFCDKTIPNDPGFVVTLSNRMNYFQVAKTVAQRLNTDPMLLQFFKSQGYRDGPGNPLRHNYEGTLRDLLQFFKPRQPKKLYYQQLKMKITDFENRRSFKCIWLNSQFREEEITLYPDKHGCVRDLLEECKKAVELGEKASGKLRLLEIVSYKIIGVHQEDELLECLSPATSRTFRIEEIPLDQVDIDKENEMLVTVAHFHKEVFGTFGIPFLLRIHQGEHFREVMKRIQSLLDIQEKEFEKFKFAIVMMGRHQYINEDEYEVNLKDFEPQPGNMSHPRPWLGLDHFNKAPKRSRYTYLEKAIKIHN

| Structure (SMILES) | IC50 [nM] |
| --- | --- |
| O=C(C1Cc2cc(Cl)c(F)c(-c3ccnc4[nH]ccc34)c2O1)N1CCNCC1 (stereo not shown) | 10000 to 30000 |
| C[C@H](O)Cc1cc2c(-c3cc(Cl)cc4c3OC(C(=O)N3CCNCC3)C4)ccnc2[nH]1 (stereo partly shown) | 1000 to 10000 |
| Cc1cnccc1-c1cc(Cl)cc2c1OC(C(=O)N1CCNCC1)C2 (stereo not shown) | 10000 to 30000 |
| N#Cc1cc2c(c(-c3ccnc4cc(CO)sc34)c1)OC(C(=O)N1CCNCC1)C2 (stereo in doubt) [(R)-7-(2-(hydroxymethyl)thieno[3,2-b]pyridin-7-yl)-2-(piperazine-1-carbonyl)-2,3-dihydrobenzofuran-5-carbonitrile] | 1000 to 10000 |
| O=C(C1Cc2cc(Cl)cc(-c3ccnc4[nH]ccc34)c2O1)N1CCC(N2CCCCC2)CC1 (stereo not shown) [1,4′-bipiperidin-1′-yl(5-chloro-7-(1H-pyrrolo[2,3-b]pyridin-4-yl)-2,3-dihydrobenzofuran-2-yl)methanone] | 1000 to 10000 |
| CCC(O)c1cc2ncnc(-c3cc(Cl)cc4c3O[C@@H](c3c5c(nn3C)CCC(N(C)C)C5)C4)c2s1 (stereo partly drawn) [1-(4-((2R)-5-chloro-2-(5-(dimethylamino)-2-methyl-4,5,6,7-tetrahydro-2H-indazol-3-yl)-2,3-dihydrobenzofuran-7-yl)thieno[3,2-d]pyrimidin-6-yl)propan-1-ol] | 1000 to 10000 |
| CCC(O)c1cc2ncnc(-c3cc(Cl)cc4c3O[C@@H](c3c5c(nn3C)CCNC5)C4)c2s1 (stereo partly drawn) [1-(4-((R)-5-chloro-2-(2-methyl-4,5,6,7-tetrahydro-2H-pyrazolo[4,3-c]pyridin-3-yl)-2,3-dihydrobenzofuran-7-yl)thieno[3,2-d]pyrimidin-6-yl)propan-1-ol] | < 1000 |
| CCC(O)c1cc2ncnc(-c3cc(Cl)cc4c3O[C@@H](c3onc5c3CNCC5)C4)c2o1 (stereo partly drawn) [1-(4-((R)-5-chloro-2-(4,5,6,7-tetrahydroisoxazolo[4,3-c]pyridin-3-yl)-2,3-dihydrobenzofuran-7-yl)furo[3,2-d]pyrimidin-6-yl)propan-1-ol] | 1000 to 10000 |
| CC(O)c1ccc2c(-c3cc(Cl)cc4c3O[C@@H](c3onc5c3CNCC5)C4)ccnc2c1 (stereo partly drawn) [1-(4-((R)-5-chloro-2-(4,5,6,7-tetrahydroisoxazolo[4,3-c]pyridin-3-yl)-2,3-dihydrobenzofuran-7-yl)quinolin-7-yl)ethan-1-ol] | < 1000 |
| CCC(O)c1ccc2c(-c3cc(Cl)cc4c3O[C@@H](c3onc5c3CNCC5)C4)ccnc2c1 (stereo partly drawn) [1-(4-((R)-5-chloro-2-(4,5,6,7-tetrahydroisoxazolo[4,3-c]pyridin-3-yl)-2,3-dihydrobenzofuran-7-yl)quinolin-7-yl)propan-1-ol] | 1000 to 10000 |
| CCC(O)c1cc2ncnc(-c3cc(Cl)cc4c3O[C@@H](c3ocnc3CNCC(F)(F)F)C4)c2s1 (stereo partly drawn) [1-(4-((R)-5-chloro-2-(4-(((2,2,2-trifluoroethyl)amino)methyl)oxazol-5-yl)-2,3-dihydrobenzofuran-7-yl)thieno[3,2-d]pyrimidin-6-yl)propan-1-ol] | 10000 to 30000 |
| CCC(O)c1cc2nccc(-c3cc(Cl)cc4c3OC(c3onc5c3CNCC5)C4)n2n1 (stereo not shown) [1-(7-(5-chloro-2-(4,5,6,7-tetrahydroisoxazolo[4,3-c]pyridin-3-yl)-2,3-dihydrobenzofuran-7-yl)pyrazolo[1,5-a]pyrimidin-2-yl)propan-1-ol] | 1000 to 10000 |
| CCC(O)c1cc2nccc(-c3cc(Cl)cc4c3OC(c3onc5c3CN(C(C)C)CC5)C4)c2s1 (stereo not shown) [1-(7-(5-chloro-2-(5-isopropyl-4,5,6,7-tetrahydroisoxazolo[4,3-c]pyridin-3-yl)-2,3-dihydrobenzofuran-7-yl)thieno[3,2-b]pyridin-2-yl)propan-1-ol] | < 1000 |
| CCC(O)c1cc2nccc(-c3cc(Cl)cc4c3OC(CN3CCNCC3)C4)c2s1 (stereo not shown) [1-(7-(5-chloro-2-(piperazin-1-ylmethyl)-2,3-dihydrobenzofuran-7-yl)thieno[3,2-b]pyridin-2-yl)propan-1-ol] | 10000 to 30000 |
| CCC(O)c1cc2nccc(-c3cc(Cl)cc4c3O[C@@H](c3nn(C)c5c3CNCC5)C4)c2s1 (stereo partly drawn) [1-(7-((R)-5-chloro-2-(1-methyl-4,5,6,7-tetrahydro-1H-pyrazolo[4,3-c]pyridin-3-yl)-2,3-dihydrobenzofuran-7-yl)thieno[3,2-b]pyridin-2-yl)propan-1-ol] | < 1000 |
| CCC(O)c1cc2nccc(-c3cc(Cl)cc4c3O[C@@H](c3c5c(nn3C)CCNC5)C4)c2s1 (stereo partly drawn) [1-(7-((R)-5-chloro-2-(2-methyl-4,5,6,7-tetrahydro-2H-pyrazolo[4,3-c]pyridin-3-yl)-2,3-dihydrobenzofuran-7-yl)thieno[3,2-b]pyridin-2-yl)propan-1-ol] | < 1000 |
| CCC(O)c1cc2nccc(-c3cc(Cl)cc4c3O[C@@H](c3[nH]nc5c3CNCC5)C4)c2s1 (stereo partly drawn) [1-(7-((R)-5-chloro-2-(4,5,6,7-tetrahydro-2H-pyrazolo[4,3-c]pyridin-3-yl)-2,3-dihydrobenzofuran-7-yl)thieno[3,2-b]pyridin-2-yl)propan-1-ol] | < 1000 |

| Structure (SMILES) | IC50 [nM] |
| --- | --- |
| CC(C)CC(O)c1cc2nccc(-c3cc(Cl)cc4c3O[C@@H](c3onc5c3CNCC5)C4)c2s1 (stereo partly drawn) [1-(7-((R)-5-chloro-2-(4,5,6,7-tetrahydroisoxazolo[4,3-c]pyridin-3-yl)-2,3-dihydrobenzofuran-7-yl)thieno[3,2-b]pyridin-2-yl)-3-methylbutan-1-ol] | < 1000 |
| CCCC(O)c1cc2nccc(-c3cc(Cl)cc4c3O[C@@H](c3onc5c3CNCC5)C4)c2s1 (stereo partly drawn) [1-(7-((R)-5-chloro-2-(4,5,6,7-tetrahydroisoxazolo[4,3-c]pyridin-3-yl)-2,3-dihydrobenzofuran-7-yl)thieno[3,2-b]pyridin-2-yl)butan-1-ol] | < 1000 |
| CCC(N)c1cc2nccc(-c3cc(Cl)cc4c3O[C@@H](c3onc5c3CNCC5)C4)c2s1 (stereo partly drawn) [1-(7-((R)-5-chloro-2-(4,5,6,7-tetrahydroisoxazolo[4,3-c]pyridin-3-yl)-2,3-dihydrobenzofuran-7-yl)thieno[3,2-b]pyridin-2-yl)propan-1-amine] | 1000 to 10000 |
| CCC(O)c1cc2nccc(-c3cc(Cl)cc4c3O[C@@H](c3ocnc3CNCCO)C4)c2s1 (stereo partly drawn) [1-(7-((R)-5-chloro-2-(4-(((2-hydroxyethyl)amino)methyl)oxazol-5-yl)-2,3-dihydrobenzofuran-7-yl)thieno[3,2-b]pyridin-2-yl)propan-1-ol] | < 1000 |
| CCC(O)c1cc2nccc(-c3cc(Cl)cc4c3O[C@@H](c3ocnc3CN(C)C)C4)c2s1 (stereo partly drawn) [1-(7-((R)-5-chloro-2-(4-((dimethylamino)methyl)oxazol-5-yl)-2,3-dihydrobenzofuran-7-yl)thieno[3,2-b]pyridin-2-yl)propan-1-ol] | < 1000 |
| CCC(O)c1cc2nccc(-c3cc(Cl)cc4c3O[C@@H](c3ocnc3CNC)C4)c2s1 (stereo partly drawn) [1-(7-((R)-5-chloro-2-(4-((methylamino)methyl)oxazol-5-yl)-2,3-dihydrobenzofuran-7-yl)thieno[3,2-b]pyridin-2-yl)propan-1-ol] | < 1000 |
| CCC(O)c1cc2nccc(-c3cc(Cl)cc4c3O[C@@H](c3ocnc3CN3CCOCC3)C4)c2s1 (stereo partly drawn) [1-(7-((R)-5-chloro-2-(4-(morpholinomethyl)oxazol-5-yl)-2,3-dihydrobenzofuran-7-yl)thieno[3,2-b]pyridin-2-yl)propan-1-ol] | 1000 to 10000 |
| CCC(O)c1cc2nccc(-c3cc(Cl)cc4c3O[C@@H](c3ocnc3CN3CCNCC3)C4)c2s1 (stereo partly drawn) [1-(7-((R)-5-chloro-2-(4-(piperazin-1-ylmethyl)oxazol-5-yl)-2,3-dihydrobenzofuran-7-yl)thieno[3,2-b]pyridin-2-yl)propan-1-ol] | < 1000 |
| CCC(O)c1cc2nccc(-c3cc(Cl)cc4c3O[C@@H](c3ocnc3CN3CCCC3)C4)c2s1 (stereo partly drawn) [1-(7-((R)-5-chloro-2-(4-(pyrrolidin-1-ylmethyl)oxazol-5-yl)-2,3-dihydrobenzofuran-7-yl)thieno[3,2-b]pyridin-2-yl)propan-1-ol] | < 1000 |
| CCC(O)c1cc2nccc(-c3cc(Cl)cc4c3O[C@@H](c3onc5c3CN(CC)CC5)C4)c2s1 (stereo partly drawn) [1-(7-((R)-5-chloro-2-(5-ethyl-4,5,6,7-tetrahydroisoxazolo[4,3-c]pyridin-3-yl)-2,3-dihydrobenzofuran-7-yl)thieno[3,2-b]pyridin-2-yl)propan-1-ol] | < 1000 |
| CCC(O)c1cc2nccc(-c3cc(Cl)cc4c3O[C@@H](c3onc5c3CNCC5)CC4)c2s1 (stereo partly drawn) [1-(7-((R)-6-chloro-2-(4,5,6,7-tetrahydroisoxazolo[4,3-c]pyridin-3-yl)chroman-8-yl)thieno[3,2-b]pyridin-2-yl)propan-1-ol] | < 1000 |
| O=C([C@H]1Cc2cc(Cl)cc(-c3ccnc4c3CC(CN3C(=O)CCC3=O)C4)c2O1)N1CCNCC1 (stereo partly drawn) [1-((4-((R)-5-chloro-2-(piperazine-1-carbonyl)-2,3-dihydrobenzofuran-7-yl)-6,7-dihydro-5H-cyclopenta[b]pyridin-6-yl)methyl)pyrrolidine-2,5-dione] | < 1000 |
| O=C1CCC(=O)N1Cc1cc2nccc(-c3cc(Cl)cc4c3O[C@@H](c3onc5c3CC(N3CCC3)CC5)C4)c2s1 (stereo partly drawn) [1-((7-((2R)-2-(5-(azetidin-1-yl)-4,5,6,7-tetrahydrobenzo[c]isoxazol-3-yl)-5-chloro-2,3-dihydrobenzofuran-7-yl)thieno[3,2-b]pyridin-2-yl)methyl)pyrrolidine-2,5-dione] | < 1000 |
| CC1CC(=O)N(Cc2cc3nccc(-c4cc(Cl)cc5c4O[C@@H](C(=O)N4CCNCC4)C5)c3s2)C1=O (stereo partly drawn) [1-((7-((R)-5-chloro-2-(piperazine-1-carbonyl)-2,3-dihydrobenzofuran-7-yl)thieno[3,2-b]pyridin-2-yl)methyl)-3-methylpyrrolidine-2,5-dione] | < 1000 |
| CC1CC(=O)N(Cc2cc3nccc(-c4cc(Cl)cc5c4O[C@@H](C(=O)N4CCNCC4)C5)c3s2)C1 (stereo partly drawn) [1-((7-((R)-5-chloro-2-(piperazine-1-carbonyl)-2,3-dihydrobenzofuran-7-yl)thieno[3,2-b]pyridin-2-yl)methyl)-4-methylpyrrolidin-2-one] | < 1000 |
| CC1CCC(=O)N1Cc1cc2nccc(-c3cc(Cl)cc4c3O[C@@H](C(=O)N3CCNCC3)C4)c2s1 (stereo partly drawn) [1-((7-((R)-5-chloro-2-(piperazine-1-carbonyl)-2,3-dihydrobenzofuran-7-yl)thieno[3,2-b]pyridin-2-yl)methyl)-5-methylpyrrolidin-2-one] | < 1000 |
| C[C@H](c1cc2nccc(-c3cc(Cl)cc4c3O[C@@H](C(=O)N3CCNCC3)C4)c2s1)N1C(=O)CCC1=O [1-((R)-1-(7-((R)-5-chloro-2-(piperazine-1-carbonyl)-2,3-dihydrobenzofuran-7-yl)thieno[3,2-b]pyridin-2-yl)ethyl)pyrrolidine-2,5-dione] | < 1000 |
